Assay results from article PMC5651913, “Photosensing and Thermosensing by Phytochrome B Require Both Proximal and Distal Allosteric Features within the Dimeric Photoreceptor” (Scientific Reports, 2017).

T1: PhyB 1–450 fragment (Arabidopsis thaliana, UniProt P14713)
T1 construct: NTE-PAS-GAF, residues 1-450; N-terminal 6His-TEV tag cut off; E. coli BL21(DE3)
T1 sequence (P14713 1-450): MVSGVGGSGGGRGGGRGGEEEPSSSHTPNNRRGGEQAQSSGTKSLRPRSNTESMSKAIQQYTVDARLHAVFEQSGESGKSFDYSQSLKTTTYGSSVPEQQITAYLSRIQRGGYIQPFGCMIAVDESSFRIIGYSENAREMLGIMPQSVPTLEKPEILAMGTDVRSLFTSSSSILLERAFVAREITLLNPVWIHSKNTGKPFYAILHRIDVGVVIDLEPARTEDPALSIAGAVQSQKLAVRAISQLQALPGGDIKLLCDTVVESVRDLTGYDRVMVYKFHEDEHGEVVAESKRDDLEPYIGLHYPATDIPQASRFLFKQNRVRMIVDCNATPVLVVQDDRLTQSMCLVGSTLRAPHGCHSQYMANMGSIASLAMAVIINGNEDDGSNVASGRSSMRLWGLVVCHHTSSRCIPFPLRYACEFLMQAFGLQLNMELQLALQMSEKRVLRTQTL

T2: full-length (FL) PhyB (Arabidopsis thaliana, UniProt P14713)
T2 construct: full length, 1172 residues; N-terminal 6His-TEV tag cut off; intron-less gene; E. coli BL21(DE3); homodimer, 320 kDa by SEC
T2 sequence (P14713 1-1172): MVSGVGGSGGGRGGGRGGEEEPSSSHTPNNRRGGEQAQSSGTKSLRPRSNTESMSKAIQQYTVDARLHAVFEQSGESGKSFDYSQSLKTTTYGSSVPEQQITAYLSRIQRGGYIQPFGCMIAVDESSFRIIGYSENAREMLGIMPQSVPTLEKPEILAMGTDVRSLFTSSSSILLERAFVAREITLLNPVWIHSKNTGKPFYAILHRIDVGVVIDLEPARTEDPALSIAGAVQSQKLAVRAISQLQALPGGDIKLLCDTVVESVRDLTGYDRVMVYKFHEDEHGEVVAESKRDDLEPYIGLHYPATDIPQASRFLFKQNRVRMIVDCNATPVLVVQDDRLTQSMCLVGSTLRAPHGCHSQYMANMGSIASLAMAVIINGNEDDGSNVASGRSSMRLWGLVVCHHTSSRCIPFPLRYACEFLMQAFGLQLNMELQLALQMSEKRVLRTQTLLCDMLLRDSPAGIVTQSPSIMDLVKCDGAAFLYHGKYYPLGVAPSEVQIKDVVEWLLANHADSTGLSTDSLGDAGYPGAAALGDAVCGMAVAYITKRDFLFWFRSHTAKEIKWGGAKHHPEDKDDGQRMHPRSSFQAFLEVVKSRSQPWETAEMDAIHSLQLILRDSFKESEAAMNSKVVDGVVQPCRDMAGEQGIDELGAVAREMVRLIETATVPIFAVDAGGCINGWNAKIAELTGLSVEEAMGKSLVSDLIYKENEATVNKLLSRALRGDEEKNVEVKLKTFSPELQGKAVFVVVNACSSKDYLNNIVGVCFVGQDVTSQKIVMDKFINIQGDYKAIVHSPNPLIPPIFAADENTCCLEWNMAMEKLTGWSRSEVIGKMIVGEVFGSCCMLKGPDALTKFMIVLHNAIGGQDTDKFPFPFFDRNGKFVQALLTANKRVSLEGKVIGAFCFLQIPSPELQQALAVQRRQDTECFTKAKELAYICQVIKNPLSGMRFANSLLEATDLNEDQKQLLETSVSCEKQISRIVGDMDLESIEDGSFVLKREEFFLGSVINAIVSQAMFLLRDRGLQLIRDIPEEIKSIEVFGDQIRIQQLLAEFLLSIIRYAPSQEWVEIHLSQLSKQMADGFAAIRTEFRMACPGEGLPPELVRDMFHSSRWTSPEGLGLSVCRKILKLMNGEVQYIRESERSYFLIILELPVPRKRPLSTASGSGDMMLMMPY

T3: PhyB 1–624 fragment (PSM) (Arabidopsis thaliana, UniProt P14713)
T3 construct: photosensory module (NTE-PAS-GAF-PHY), residues 1-624; N-terminal 6His-TEV tag cut off; E. coli BL21(DE3)
T3 sequence (P14713 1-624): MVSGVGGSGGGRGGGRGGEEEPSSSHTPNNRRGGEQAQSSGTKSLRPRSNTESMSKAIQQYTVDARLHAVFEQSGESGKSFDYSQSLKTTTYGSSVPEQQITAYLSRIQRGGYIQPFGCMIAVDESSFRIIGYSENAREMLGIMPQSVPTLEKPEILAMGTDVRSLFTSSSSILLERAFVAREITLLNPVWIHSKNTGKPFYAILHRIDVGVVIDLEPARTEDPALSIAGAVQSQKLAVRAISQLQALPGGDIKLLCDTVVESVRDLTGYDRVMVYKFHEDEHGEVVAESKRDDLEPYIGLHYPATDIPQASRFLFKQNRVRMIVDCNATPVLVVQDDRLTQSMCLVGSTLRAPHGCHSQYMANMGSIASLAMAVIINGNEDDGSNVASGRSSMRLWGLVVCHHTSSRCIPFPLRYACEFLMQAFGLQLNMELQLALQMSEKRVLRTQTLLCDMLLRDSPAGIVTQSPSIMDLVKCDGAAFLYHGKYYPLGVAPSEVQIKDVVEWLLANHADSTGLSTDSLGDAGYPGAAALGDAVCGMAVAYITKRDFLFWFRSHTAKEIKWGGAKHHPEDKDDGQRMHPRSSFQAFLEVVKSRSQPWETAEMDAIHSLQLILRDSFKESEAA

T4: PhyB 1–908 fragment (Arabidopsis thaliana, UniProt P14713)
T4 construct: residues 1-908 (HKRD removed); N-terminal 6His-TEV tag cut off; E. coli BL21(DE3)
T4 sequence (P14713 1-908): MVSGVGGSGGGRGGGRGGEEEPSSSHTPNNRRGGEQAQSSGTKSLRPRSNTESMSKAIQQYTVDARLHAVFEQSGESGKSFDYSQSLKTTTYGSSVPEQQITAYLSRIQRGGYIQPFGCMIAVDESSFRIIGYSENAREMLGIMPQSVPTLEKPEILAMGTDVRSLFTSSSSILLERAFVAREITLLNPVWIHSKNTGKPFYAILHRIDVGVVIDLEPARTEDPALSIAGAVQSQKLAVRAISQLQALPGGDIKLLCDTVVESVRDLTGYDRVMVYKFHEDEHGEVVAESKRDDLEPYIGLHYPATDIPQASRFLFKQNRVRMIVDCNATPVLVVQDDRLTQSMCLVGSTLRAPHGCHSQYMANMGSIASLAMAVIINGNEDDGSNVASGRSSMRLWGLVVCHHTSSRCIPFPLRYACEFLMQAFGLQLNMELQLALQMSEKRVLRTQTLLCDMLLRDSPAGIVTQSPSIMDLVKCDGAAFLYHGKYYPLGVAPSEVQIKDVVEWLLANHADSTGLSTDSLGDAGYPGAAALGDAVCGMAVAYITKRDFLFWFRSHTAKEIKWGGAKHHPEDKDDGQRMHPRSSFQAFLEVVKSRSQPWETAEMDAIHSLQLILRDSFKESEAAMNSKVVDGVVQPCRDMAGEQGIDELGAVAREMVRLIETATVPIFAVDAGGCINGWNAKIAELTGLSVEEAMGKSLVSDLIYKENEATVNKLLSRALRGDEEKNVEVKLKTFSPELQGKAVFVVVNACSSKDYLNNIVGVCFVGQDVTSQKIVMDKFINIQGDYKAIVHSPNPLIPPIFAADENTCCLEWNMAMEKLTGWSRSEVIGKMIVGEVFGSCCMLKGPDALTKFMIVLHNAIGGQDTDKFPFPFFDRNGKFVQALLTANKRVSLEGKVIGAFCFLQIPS


Experiments:
[1] = target: T1, PhyB 1–450 fragment; assay: assembly in E. coli, zinc-induced fluorescence after SDS-PAGE, UV-Vis absorption; format: binding; settings: covalent; GAF domain cysteine; 25 °C, pH 7.9
[2] = target: T2, full-length (FL) PhyB; assay: as above; format: binding; settings: covalent; GAF domain cysteine; 25 °C, pH 7.9
[3] = target: T5, PhyB 90–624 (NTE truncation) (Arabidopsis thaliana, UniProt P14713); assay: as above; format: binding; settings: covalent; GAF domain cysteine; 25 °C, pH 7.9
T5 construct: PSM residues 90-624; N-terminal 6His-TEV tag cut off; E. coli BL21(DE3); 4OUR is an earlier structure of this fragment

[4] = target: T3, PhyB 1–624 fragment (PSM); assay: as above; format: binding; settings: covalent; GAF domain cysteine; 25 °C, pH 7.9
[5] = target: T6, PhyB 100–624 (NTE truncation) (Arabidopsis thaliana, UniProt P14713); assay: as above; format: binding; settings: covalent; GAF domain cysteine; 25 °C, pH 7.9
T6 construct: PSM residues 100-624; N-terminal 6His-TEV tag cut off; E. coli BL21(DE3)

[6] = target: T4, PhyB 1–908 fragment; assay: as above; format: binding; settings: covalent; GAF domain cysteine; 25 °C, pH 7.9
[7] = target: T7, PhyB 51–624 (NTE truncation) (Arabidopsis thaliana, UniProt P14713); assay: as above; format: binding; settings: covalent; GAF domain cysteine; 25 °C, pH 7.9
T7 construct: PSM residues 51-624; N-terminal 6His-TEV tag cut off; E. coli BL21(DE3)

[8] = target: the molecule itself; assay: SEC; Superdex 200 HR 10/30, 10 °C, 150 mM KCl, 50 mM HEPES-NaOH pH 7.8, 0.3 mM TCEP; samples as Pr at 0.6 mg/ml; apparent mass from size standards; monomer to dimer

| Molecule | assembly in E. coli, zinc-induced fluorescence after SDS-PAGE, UV-Vis absorption [1] | assembly in E. coli, zinc-induced fluorescence after SDS-PAGE, UV-Vis absorption [2] | assembly in E. coli, zinc-induced fluorescence after SDS-PAGE, UV-Vis absorption [3] | assembly in E. coli, zinc-induced fluorescence after SDS-PAGE, UV-Vis absorption [4] | assembly in E. coli, zinc-induced fluorescence after SDS-PAGE, UV-Vis absorption [5] | assembly in E. coli, zinc-induced fluorescence after SDS-PAGE, UV-Vis absorption [6] | assembly in E. coli, zinc-induced fluorescence after SDS-PAGE, UV-Vis absorption [7] | stoichiometry N [8] |
| --- | --- | --- | --- | --- | --- | --- | --- | --- |
| C/C=C1/C(=C/c2[nH]c(/C=C3N=C(/C=C4\NC(=O)C(CC)=C4C)C(C)=C\3CCC(=O)O)c(CCC(=O)O)c2C)NC(=O)[C@@H]1C [PCB] | the fragment assembled with PCB generated as least some of a ‘Pfr’-like state | recombinant PhyB assembled with PCB with efficiencies equal to that seen for PΦB | – | – | – | – | – | – |
| C=CC1=C(C)/C(=C/C2=NC(=C\c3[nH]c(/C=C4\NC(=O)[C@H](C)\C4=C/C)c(C)c3CCC(=O)O)/C(CCC(=O)O)=C2C)NC1=O [PΦB] | The truncations were expressed and assembled with PΦB in Escherichia coli | purified chromoproteins were readily obtained with high bilin occupancy and near normal Pr absorption | all of the truncations expressed well, efficiently assembled with PΦB, and displayed normal Pr absorption | The truncations were expressed and assembled with PΦB in Escherichia coli | all of the truncations expressed well, efficiently assembled with PΦB, and displayed normal Pr absorption | The truncations were expressed and assembled with PΦB in Escherichia coli | all of the truncations expressed well, efficiently assembled with PΦB, and displayed normal Pr absorption | – |
| full-length Arabidopsis thaliana PhyB assembled with PΦB (natural protein, UniProt P14713 1-1172, looked up, phytochromobilin (PΦB) covalently bound to the cysteine of the GAF domain, Phytochrome B (PhyB), Arabidopsis thaliana, full-length 1172-residue polypeptide, from an intron-less PhyB gene designed for recombinant expression; Analysed as Pr; TEV cleavage of the printed tag probably leaves its last G at the N-terminus (surmised); also called FL PhyB; FL) MVSGVGGSGGGRGGGRGGEEEPSSSHTPNNRRGGEQAQSSGTKSLRPRSNTESMSKAIQQYTVDARLHAVFEQSGESGKSFDYSQSLKTTTYGSSVPEQQITAYLSRIQRGGYIQPFGCMIAVDESSFRIIGYSENAREMLGIMPQSVPTLEKPEILAMGTDVRSLFTSSSSILLERAFVAREITLLNPVWIHSKNTGKPFYAILHRIDVGVVIDLEPARTEDPALSIAGAVQSQKLAVRAISQLQALPGGDIKLLCDTVVESVRDLTGYDRVMVYKFHEDEHGEVVAESKRDDLEPYIGLHYPATDIPQASRFLFKQNRVRMIVDCNATPVLVVQDDRLTQSMCLVGSTLRAPHGCHSQYMANMGSIASLAMAVIINGNEDDGSNVASGRSSMRLWGLVVCHHTSSRCIPFPLRYACEFLMQAFGLQLNMELQLALQMSEKRVLRTQTLLCDMLLRDSPAGIVTQSPSIMDLVKCDGAAFLYHGKYYPLGVAPSEVQIKDVVEWLLANHADSTGLSTDSLGDAGYPGAAALGDAVCGMAVAYITKRDFLFWFRSHTAKEIKWGGAKHHPEDKDDGQRMHPRSSFQAFLEVVKSRSQPWETAEMDAIHSLQLILRDSFKESEAAMNSKVVDGVVQPCRDMAGEQGIDELGAVAREMVRLIETATVPIFAVDAGGCINGWNAKIAELTGLSVEEAMGKSLVSDLIYKENEATVNKLLSRALRGDEEKNVEVKLKTFSPELQGKAVFVVVNACSSKDYLNNIVGVCFVGQDVTSQKIVMDKFINIQGDYKAIVHSPNPLIPPIFAADENTCCLEWNMAMEKLTGWSRSEVIGKMIVGEVFGSCCMLKGPDALTKFMIVLHNAIGGQDTDKFPFPFFDRNGKFVQALLTANKRVSLEGKVIGAFCFLQIPSPELQQALAVQRRQDTECFTKAKELAYICQVIKNPLSGMRFANSLLEATDLNEDQKQLLETSVSCEKQISRIVGDMDLESIEDGSFVLKREEFFLGSVINAIVSQAMFLLRDRGLQLIRDIPEEIKSIEVFGDQIRIQQLLAEFLLSIIRYAPSQEWVEIHLSQLSKQMADGFAAIRTEFRMACPGEGLPPELVRDMFHSSRWTSPEGLGLSVCRKILKLMNGEVQYIRESERSYFLIILELPVPRKRPLSTASGSGDMMLMMPY | – | – | – | – | – | – | – | 2 |
